The record followed here is patent publication US8912236B2 (Alcon Research, Ltd., priority 2009, dated 2014).

The experiment concerns FGFR. As to the kind of experiment: Kinase inhibition, cell-free enzymatic assay. The experiment is classed as biochemical. To be noted: 1 mM ATP.

The term pIC50 denotes the IC50 on a negative log10 scale, so that one unit is a factor of ten. A higher pIC50 goes with a low IC50.

pIC50: −log10 of the molar value. A value given as a limit tells only on which side of the number the result lay.

Consider `Cc1ccc(F)c(NC(=O)Nc2ccc(-c3cccc4[nH]nc(N)c34)cc2)c1` [RTK Inhibitor, N-[4-(3-amino-1H-indazol-4-yl)phenyl]-N′-(2-fluoro-5-methylphenyl) urea], for which the negative logarithm of the IC50 (pIC50) is below 4.90.
